Laboratory results from paper PMC6874683, “Pyrrothiogatain acts as an inhibitor of GATA family proteins and inhibits Th2 cell differentiation in vitro” (Scientific Reports, 2019).

Key:
[1] = tested on: cytokine, GATA3 and Tbx21 mRNA; assay: Quantitative RT-PCR, total CD4+ T cells under IL-2 conditions; assay type: cell-based, mouse; settings: 30 µM, five days
Protocol: C57BL/6 mice were purchased from Clea (Clea Japan, Inc., Tokyo, Japan). Total CD4^+ T cells isolated from mouse spleen were prepared using a FITC anti-mouse CD4 antibody (Cat#100510, RM4–5, BioLegend) and anti-FITC-microbeads (Cat#130-097-050, Miltenyi Biotec). Naive CD4^+ T cells (CD44^low, CD62L^high) were prepared using a MojoSort Mouse CD4 T cell Isolation Kit (Cat#480033), BioLegend). Biotinylated anti-CD44 (Cat#103004, IM7) and anti-CD25 antibodies (Cat#102004, PC61) were purchased from BioLegend. CD4^+ T cells (7.5 × 10^5) were stimulated using immobilized anti-TCR-β mAb (3 µg/mL, H57–597, BioLegend) plus an anti-CD28 mAb (1.0 µg/mL, cat#40–0281, TONBO Biosciences) for 2 days, and then, the cells were further expanded under similar conditions for an additional 3 days. IL-2 conditions: IL-2 (10 ng/mL, Pepro Tech); Th2 conditions: IL-2 (10 ng/mL, Pepro Tech), IL-4 (1 ng/mL, Pepro Tech), and anti-IFN-γ mAb (2.5 µg/mL, cat#40–731, TONBO Biosciences). Th1 conditions: IL-2 (10 ng/mL, Pepro Tech), IL-12 (1 ng/mL, Pepro Tech), and anti-IL-4 mAb (2.5 µg/mL, cat#40–731, TONBO Biosciences). The cultured cells were subjected to intracellular staining, ELISA assay, and RT-PCR. All animal experiments received approval from the Ehime University Administrative Panel for Animal Care. All animal care was conducted in accordance with the guidelines of Ehime University.
Total RNA was isolated using the TRI Reagent (Molecular Research Center, Inc.). Reverse transcription and qRT-PCR were performed using the Transcriptor First Strand cDNA Synthesis Kit (Cat#04379012001, Roche) and FastStart Essential DNA Green Master (Cat#06402712001, Roche), according to the manufacturer’s protocols. qRT-PCR primers were used as follow; IL-4: 5′-GATCGGCATTTTCAACGAG-3′ (forward), 5′-[…]-3′ (reverse); IL-13: 5′-[…]-3′ (forward), 5′-[…]-3′ (reverse); IFN-γ: 5′-[…]-3′ (forward), 5′-[…]-3′ (reverse); IL-2: 5′-[…]-3′ (forward), 5′-[…]-3′ (reverse); Gata3: 5′-TTATCAAGCCCAAGCGAAG-3′ (forward), 5′-TGGTGGTGGTCTGACAGTT-3′ (reverse); and Tbx21: 5′-[…]-3′ (forward), 5′-[…]-3′ (reverse).
(C) Quantitative RT-PCR analysis of the pyrrothiogatain-treated Th2 cells shown in panel (A).

GATA3-SOX4 interaction = molecular target: T1, GATA3-SOX4 interaction (Homo sapiens, UniProt P23771); assay: Immunoprecipitation of GATA3 and SOX4; assay type: binding; settings: 0 to 100 µM
T1 construct: we synthesized the recombinant full-length GATA3 protein with an N-terminal FLAG tag using the wheat cell-free system; made in house; host or cells: wheat cell-free protein synthesis system (WEPRO1240 kit), BirA added for biotinylation
Protocol: Co-immunoprecipitation analysis of GATA3 and SOX4 was conducted as follows. Immunoprecipitation of FLAG-tagged GATA3 in the presence of pyrrothiogatain (0 to 100 µM) was performed by mixing recombinant FLAG-GATA3 and AGIA-SOX4 with 10 µL of anti-FLAG M2 affinity agarose gel (cat#A2220, Sigma-Aldrich) by rotation at 4 °C for 2 h. The agarose gels were washed three times, and then the immunoprecipitated protein was detected by immunoblotting using anti-FLAG M2 antibody and anti-AGIA-HRP[36].

RelA = molecular target: T2, RelA (Homo sapiens, UniProt Q04206); assay: AlphaScreen binding assay of RelA and its target DNA (control); settings: second screen, 0 to 10 µM
T2 construct: FLAG; made in house; host or cells: wheat cell-free protein synthesis system (inferred from the general methods)
Source text: Figure 2 Identification of a GATA3 inhibitor using the wheat cell-free drug screening system. (A) A flow chart of the high-throughput screening to identify the 3-(2,5-dimethyl-1H-pyrrol-1-yl)thiophene-2-carboxylic acid that inhibits the DNA-binding activity of GATA3. The 3-(2,5-dimethyl-1H-pyrrol-1-yl)thiophene-2-carboxylic acid was named pyrrothiogatain (pyrrole and thiofuran containing GATA3 inhibitor). (B) The results of the first screen using 9,600 compounds. In the assay, each chemical compound was used at a final concentration of 10 µM. (C) The results of the second screening that show the inhibition rate of pyrrothiogatain. The inhibition assay of GATA3 DNA-binding activity was performed in the presence of various concentrations of pyrrothiogatain (0 to 10 µM). Biotinylated FLAG-peptide was used as a control to measure the interference of compounds in the AlphaScreen assay. In addition, a binding assay of RelA and its target DNA was used as control for GATA3. (D) Electrophoretic mobility shift assay (EMSA) of GATA3 with its consensus motif containing oligonucleotide in the presence of various concentrations of pyrrothiogatain (0 to 100 µM). GATA3 consensus oligonucleotide labelled with ^32P was detected by autoradiography. […] In (B,D,E), all data are expressed as individual points of three independent experiments with error bars indicating standard deviation. […]

T1 sequence (P23771 whole entry): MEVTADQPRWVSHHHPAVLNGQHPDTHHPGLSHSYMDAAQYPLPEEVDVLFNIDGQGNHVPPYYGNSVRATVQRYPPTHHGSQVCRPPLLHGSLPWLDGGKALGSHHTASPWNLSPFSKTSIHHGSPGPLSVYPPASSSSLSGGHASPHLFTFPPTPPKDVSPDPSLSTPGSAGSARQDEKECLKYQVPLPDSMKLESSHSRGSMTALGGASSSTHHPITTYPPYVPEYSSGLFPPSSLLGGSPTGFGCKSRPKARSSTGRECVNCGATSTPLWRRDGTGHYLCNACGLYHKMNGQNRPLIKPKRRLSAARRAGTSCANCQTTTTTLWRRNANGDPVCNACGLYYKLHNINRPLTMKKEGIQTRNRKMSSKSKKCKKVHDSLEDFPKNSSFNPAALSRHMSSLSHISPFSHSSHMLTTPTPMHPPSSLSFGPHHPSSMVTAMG
T2 sequence (Q04206 whole entry, species assumed): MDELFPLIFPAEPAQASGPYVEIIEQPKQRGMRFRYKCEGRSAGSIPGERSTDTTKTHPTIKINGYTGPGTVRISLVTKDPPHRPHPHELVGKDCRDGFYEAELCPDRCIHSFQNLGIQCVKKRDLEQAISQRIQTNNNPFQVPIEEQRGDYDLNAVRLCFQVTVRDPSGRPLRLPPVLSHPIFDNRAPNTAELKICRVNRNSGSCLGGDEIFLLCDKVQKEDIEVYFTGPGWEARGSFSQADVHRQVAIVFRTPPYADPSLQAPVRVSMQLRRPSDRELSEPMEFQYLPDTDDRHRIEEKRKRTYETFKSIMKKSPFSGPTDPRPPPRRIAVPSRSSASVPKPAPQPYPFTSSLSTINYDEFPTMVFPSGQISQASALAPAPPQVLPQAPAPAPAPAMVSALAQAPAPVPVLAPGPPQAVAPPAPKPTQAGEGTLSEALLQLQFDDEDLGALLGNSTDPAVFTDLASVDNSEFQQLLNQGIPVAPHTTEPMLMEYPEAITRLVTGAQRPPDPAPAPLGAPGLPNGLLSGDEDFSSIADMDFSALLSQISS

Q: What does the source list for `Cc1ccc(C)n1-c1ccsc1C(=O)O` [Pyrrothiogatain, 3-(2,5-dimethyl-1H-pyrrol-1-yl)thiophene-2-carboxylic acid]?
A: Expression of GATA3, mRNA level [1]: not influenced; Expression of Tbx21 [1]: increased; mRNA expression of IFN-γ (RT-qPCR) [1]: Increased; mRNA expression of IL-4, IL-5, IL-10, and IL-13 (RT-qPCR) [1]: decreased; GATA3-SOX4 interaction by immunoprecipitation (GATA3-SOX4 interaction): dose-dependent decrease; Interference with the RelA-DNA interaction (RelA): without interfering
